Read-outs that look alike come from different tables or passages of the source.
Assays:
HeLa cells = experiment: Anti-proliferative activity test in HeLa cell line (MTT); type: cell-based; details: Homo sapiens, 48 h, grown for 2 days, mean of 2
Procedure: HeLa cells (American Type Culture Collection: ATCC, USA), a human cervical cancer cell line, were seeded in a 96-well plate at 3×10^3 cells/well, and the cells were then treated with compounds of Examples or Comparative Example according to the present invention and grown for 2 days. Then, MTT (3-(4,5-dimethylthiazol-2-yl)-2,5-diphenyltetrazolium bromide) reagent was added at 10 μL/well. After 2 hours, absorbance was measured at “OD 450” and statistical values were obtained using Prism™6 program. The data shown in Table below are mean values of results obtained by repeating the analysis twice.

[1] = Metabolic stability test in liver microsomes; type: in vitro ADME; details: 0.5 mg protein/mL, 37° C.
Procedure: (§1) The test compounds at a concentration of […] were administered in the presence or absence of NADPH (1 mM) to liver […] (0.5 mg protein/mL) of humans, rats and mice, and metabolic stability was tested at 37° C. for 30 minutes. In addition, buspirone was used as a positive control. Results thereof are shown in Table below and FIGS. 4A to 4E.

Stability test in plasma [2] = type: in vitro ADME; parameters: Residue % (180 minutes elapsed), Mean: dose or concentration left out as unconfirmed; details: 37° C.
Procedure: In order to test the stability (in vivo) of the Example compounds according to the present invention, the compounds of Examples 2, 3, 4, 8 and 15 were administered intravenously, and plasma concentrations over time were observed. In addition, procaine was used as a positive control. Plasma stability was measured three times by administering the test compound at a concentration […] to human, rat, or mouse plasma (90 μL) at 37° C. Results thereof are shown in Table below and FIGS. 3A to 3E.

[3] = Solubility test in administration solvent; type: physicochemical; details: 2.0 mg/mL; Solvent A 20%, Solvent B 20%, Solvent C 60% (dimethylacetamide/Cremophor EL/20% HPbCD)
Procedure: The test substances were accurately weighed and placed in a glass vial. Then, solvent A was added in an amount corresponding to 20% of the desired final solution volume, and the mixture was completely dissolved by treatment with a vortexer and sonication. Next, solvent B in an amount corresponding to 10% or 20% of the final solution volume was added and mixed well. […] Finally, the mixture was subjected to sonication for 30 seconds. The mixed solution was prepared and used immediately before administration in the experiment. • Solvent A: Dimethylacetamide produced by SigmaAldrich • Solvent B: Cremophor EL produced by SigmaAldrich • Solvent C: 20% HPbCD ((2-Hydroxypropyl)-β-cyclodextrin produced by SigmaAldrich) in deionized water

HeLa CCL2 tumor = experiment: Anticancer effect test in human cervical cancer cell (HeLa CCL2) transplantation model; type: in vivo, BALB/C female nude mouse; details: 25 mg/kg intraperitoneally, p<0.001
Procedure: After thawing the human […] cancer cell line HeLa CCL2 that was stored frozen in liquid nitrogen, cell culture was performed. The cells were cultured for an appropriate period in a CO2 incubator (Forma, USA) at a temperature of 37° C. and a CO2 concentration of 5%.
On the last day of culture, all cancer cells were collected and counted, and the cell concentration was adjusted to 1×10^7 cells/mL using serum free media. The cell culture solution as adjusted above was injected subcutaneously into the axillary region between the shoulder blade and the chest wall in an amount of 0.3 mL (3×10^6 cells/mouse) per BALB/C female nude mouse (5 weeks old, Nara Biotech).
Immediately prior to administration, the compounds were dissolved in a mixture of DMAC (dimethylacetamide) 20%+Tween80 5%+20% HPbCD (2-hydroxypropyl-β-cyclodextrin) 75% at an appropriate concentration and used. The prepared substances were repeatedly administered intraperitoneally in an amount of 0.2 mL (10 mL/kg) per 20 g of a mouse according to the following administration schedule. • carrier, the compound of Example 4, the compound of Example 8, and the compound of Example 15 (25 mg/kg), 0-28 days 4.3. Confirmation of Change in Tumor Size
After cancer cell transplantation, the tumor size of each animal subject was measured a total of 11 times in 3 directions using a vernier caliper from when the mean tumor size reached 57.0 mm^3 until Day 28, and calculated by the formula of length×width×height/2.
In order to test the degree of toxicity upon repeated intraperitoneal administration of the Example compound to HeLa CCL2 cancer cell transplantation nude mice, general symptoms and body weight changes of the animal subjects were observed during the administration period.
On Day 28 after drug administration, blood was collected from the mouse ophthalmic veins in 2 hours post the last administration, and the mice were killed using CO2 gas. Images of the mice were taken, and the tumor was separated and weighed on an electronic scale. After taking the images, each tumor was divided in half and fixed in liquid nitrogen and formalin, respectively. On […] after drug administration, the HeLa CCL2 tumor was excised and weighed.

[4] = Stability in buffer (line of the metabolic stability test); type: in vitro ADME
Procedure: as §1

[5] = Pharmacokinetic (PK) test; type: in vivo, male ICR mice; details: for Vd: iv; for AUC(0-t): read-out: AUClast, Mean
Procedure: Pharmacokinetic (PK) parameters of the Example compounds according to the present invention were determined using male ICR mice as follows (n=3).
Pharmacokinetic (PK) parameters were measured by non-compartmental analysis of plasma concentration-time curves using Kinetica™ 4.4.1 (Thermo Fisher Scientific, USA). Results thereof are shown in Table below and FIGS. 5A to 5C. In Table below, “F” parameter was calculated using AUClast, “N/A” indicates the phrase not applicable, and “NC” indicates the phrase not calculated.

Stability test in plasma [6] = type: in vitro ADME; details: Rat plasma, 37° C.
Procedure: In order to test the stability (in vivo) of the Example compounds according to the present invention, the compounds of Examples 2, 3, 4, 8 and 15 were administered intravenously, and plasma concentrations over time were observed. In addition, procaine was used as a positive control. Plasma stability was measured three times by administering the test compound at a concentration of 5 mM to human, rat, or mouse plasma (90 μL) at 37° C. Results thereof are shown in Table below and FIGS. 3A to 3E.

[7] = male, ICR, mouse, plasma, Oral administration, 20 mg/kg, mice, n=3

IC50 (HeLa cells): 123 nM
Residue (%) after culturing for 30 min ([1]; Human, +NADPH): 7.94 ± 0.74%
Residue (%) after culturing for 30 min ([1]; Human, −NADPH): 88.63 ± 1.61%
Residue (%) after culturing for 30 min ([1]; Mouse, +NADPH): 4.82 ± 0.52%
Residue (%) after culturing for 30 min ([1]; Mouse, −NADPH): 86.31 ± 1.72%
Residue (%) after culturing for 30 min ([1]; Rat, +NADPH): 3.47 ± 0.25%
Residue (%) after culturing for 30 min ([1]; Rat, −NADPH): 94.95 ± 1.93%
Residue % (180 minutes elapsed), Mean (Stability test in plasma [2]; Human plasma): 4.20%
half-life at 5 mM (Stability test in plasma [2]; Human plasma): 160 min
Residue % (180 minutes elapsed), Mean (Stability test in plasma [2]; Mouse plasma): 57.25%
half-life at 5 mM (Stability test in plasma [2]; Mouse plasma): > 180 min
Solubility evaluation result [3]: Soluble
Residue (%) after culturing for 30 min [4]: 91.02 ± 2.89%
F, Mean ([5]; Oral 20 mg/kg vs intravenous 5 mg/kg, calculated using AUClast): 0.3%
Vd ([5]; male, ICR, mouse, plasma, 5 mg/kg, Intravenous administration, 5 mg/kg, mice, n=3, read-out: Vss, Mean): 0.71 L/kg
Vd ([5]; male, ICR, mouse, plasma, 5 mg/kg, Intravenous administration, 5 mg/kg, mice, n=3, read-out: Vz, Mean): 1.37 L/kg
AUC(0-inf) ([5]; male, ICR, mouse, plasma, Intravenous administration, 5 mg/kg, mice, n=3, read-out: AUCinf, Mean): 1730 ng·h/mL
AUC(0-t) ([5]; male, ICR, mouse, plasma, Intravenous administration, 5 mg/kg, mice, n=3): 1720 ng·h/mL
clearance ([5]; male, ICR, mouse, plasma, Intravenous administration, 5 mg/kg, mice, n=3, read-out: CL, Mean (converted)): 48.2 mL/min/kg
MRT inf ([5]; male, ICR, mouse, plasma, Intravenous administration, 5 mg/kg, mice, n=3, read-out: MRTinf, Mean): 14.4 min
half-life ([5]; male, ICR, mouse, plasma, Intravenous administration, 5 mg/kg, mice, n=3, read-out: t1/2, Mean (converted)): 19.8 min
Cmax [5, 7]: 34.4 ng/mL
Tmax [5, 7]: 15 min
AUC(0-t) [5, 7]: 18 ng·h/mL
half-life at 5 mM (Stability test in plasma [6]): 134 min
Residue % (180 minutes elapsed), Mean (Stability test in plasma [6]; 5 mM): 41.74%
Structure (SMILES): CCOCCn1c(Cl)c(/C=N/NC(=O)c2cc3cc(OC)ccc3o2)c2cc(OC)ccc21 [Example 15, (E)-N′-[(2-chloro-1-(2-ethoxyethyl)-5-methoxy-1H-indol-3-yl]methylene}-5-methoxybenzofuran-2-carbohydrazide]
tumor growth inhibition (HeLa CCL2 tumor; 0-28 days, Day 28, tumor size): 40.13%
reduction in tumor weight compared with solvent control (HeLa CCL2 tumor; excised tumor): 26.2%
